Test results published in the NIST ThermoML archive (doi:10.1016/j.tca.2013.08.031).

Test: molar heat capacity at constant volume
Conditions: Fluid (supercritical or subcritical phases), Vacuum adiabatic calorimetry

CCC(C)O (stereo not given) [butan-2-ol]
Conditions	molar heat capacity at constant volume [J/K/mol]
535.75 K, Mass density=276.45 kg/m3	527.97
535.77 K, Mass density=276.45 kg/m3	533.08
535.79 K, Mass density=276.45 kg/m3	548.5
535.81 K, Mass density=276.45 kg/m3	529.67
535.83 K, Mass density=276.45 kg/m3	536.49
535.85 K, Mass density=276.45 kg/m3	560.43
535.86 K, Mass density=276.45 kg/m3	562.14
535.88 K, Mass density=276.45 kg/m3	565.55
535.9 K, Mass density=276.45 kg/m3	627.07
535.92 K, Mass density=198.25 kg/m3	287.44
535.92 K, Mass density=245.67 kg/m3	437.17
535.92 K, Mass density=276.45 kg/m3	603.13
535.92 K, Mass density=279.19 kg/m3	513.14
535.92 K, Mass density=284.93 kg/m3	498.99
535.92 K, Mass density=286.65 kg/m3	532.71
535.92 K, Mass density=301.19 kg/m3	383.21
535.92 K, Mass density=347.06 kg/m3	252.01
535.94 K, Mass density=284.93 kg/m3	419.68
535.94 K, Mass density=286.65 kg/m3	578.37
535.95 K, Mass density=284.93 kg/m3	421.31
535.95 K, Mass density=286.65 kg/m3	524.41
535.97 K, Mass density=284.93 kg/m3	349.85
535.97 K, Mass density=286.65 kg/m3	524.41
535.99 K, Mass density=284.93 kg/m3	316.57
536.01 K, Mass density=284.93 kg/m3	314.87
536.01 K, Mass density=286.65 kg/m3	402.85
536.02 K, Mass density=284.93 kg/m3	309.9
536.02 K, Mass density=286.65 kg/m3	345.48
536.04 K, Mass density=284.93 kg/m3	311.53
536.04 K, Mass density=286.65 kg/m3	354.45
536.06 K, Mass density=284.93 kg/m3	311.53
536.06 K, Mass density=286.65 kg/m3	328.36
536.07 K, Mass density=284.93 kg/m3	306.57
536.07 K, Mass density=286.65 kg/m3	328.58
536.1 K, Mass density=198.25 kg/m3	281.66
536.1 K, Mass density=245.67 kg/m3	331.55
536.1 K, Mass density=279.19 kg/m3	476.23
536.1 K, Mass density=284.93 kg/m3	291.59
536.1 K, Mass density=286.65 kg/m3	323.99
536.1 K, Mass density=301.19 kg/m3	296.49
536.1 K, Mass density=347.06 kg/m3	251.27
536.29 K, Mass density=198.25 kg/m3	285.44
536.29 K, Mass density=245.67 kg/m3	329.17
536.29 K, Mass density=276.45 kg/m3	321.32
536.29 K, Mass density=279.19 kg/m3	304.71
536.29 K, Mass density=284.93 kg/m3	286.04
536.29 K, Mass density=286.65 kg/m3	321.09
536.29 K, Mass density=301.19 kg/m3	280.18
536.29 K, Mass density=347.06 kg/m3	249.79
536.47 K, Mass density=245.67 kg/m3	323.47
536.47 K, Mass density=276.45 kg/m3	313.68
536.47 K, Mass density=279.19 kg/m3	298.27
536.47 K, Mass density=284.93 kg/m3	280.77
536.47 K, Mass density=286.65 kg/m3	317.39
536.47 K, Mass density=301.19 kg/m3	281.66
536.47 K, Mass density=347.06 kg/m3	252.75
536.65 K, Mass density=245.67 kg/m3	321.24
536.65 K, Mass density=276.45 kg/m3	308.64
536.65 K, Mass density=279.19 kg/m3	293.23
536.65 K, Mass density=284.93 kg/m3	276.92
536.65 K, Mass density=286.65 kg/m3	311.53
536.65 K, Mass density=301.19 kg/m3	277.96
536.65 K, Mass density=347.06 kg/m3	246.82
536.83 K, Mass density=245.67 kg/m3	318.35
536.83 K, Mass density=276.45 kg/m3	300.12
536.83 K, Mass density=279.19 kg/m3	287.74
536.83 K, Mass density=284.93 kg/m3	274.25
536.84 K, Mass density=347.06 kg/m3	250.53
537.02 K, Mass density=279.19 kg/m3	289.37
537.02 K, Mass density=284.93 kg/m3	272.03
537.02 K, Mass density=301.19 kg/m3	263.13
537.02 K, Mass density=347.06 kg/m3	248.31
537.2 K, Mass density=245.67 kg/m3	296.34
537.2 K, Mass density=276.45 kg/m3	295.37
537.2 K, Mass density=279.19 kg/m3	287.81
537.2 K, Mass density=284.93 kg/m3	271.51
537.2 K, Mass density=286.65 kg/m3	304.94
537.2 K, Mass density=301.19 kg/m3	266.84
537.38 K, Mass density=245.67 kg/m3	296.56
537.38 K, Mass density=276.45 kg/m3	285.37
537.38 K, Mass density=279.19 kg/m3	282.48
537.38 K, Mass density=284.93 kg/m3	270.32
537.38 K, Mass density=286.65 kg/m3	304.42
537.38 K, Mass density=301.19 kg/m3	263.13
537.57 K, Mass density=245.67 kg/m3	297.52
537.57 K, Mass density=276.45 kg/m3	284.11
537.57 K, Mass density=279.19 kg/m3	284.26
537.57 K, Mass density=284.93 kg/m3	268.17
537.57 K, Mass density=286.65 kg/m3	301.23
537.57 K, Mass density=301.19 kg/m3	260.17
537.75 K, Mass density=276.45 kg/m3	282.92
537.75 K, Mass density=284.93 kg/m3	267.36
537.75 K, Mass density=286.65 kg/m3	302.27
537.75 K, Mass density=301.19 kg/m3	260.17
537.93 K, Mass density=117 kg/m3	227.92
537.93 K, Mass density=279.19 kg/m3	277.21
537.93 K, Mass density=286.65 kg/m3	301.23
537.93 K, Mass density=301.19 kg/m3	259.43
538.11 K, Mass density=117 kg/m3	182.93
538.11 K, Mass density=279.19 kg/m3	274.92
538.11 K, Mass density=301.19 kg/m3	253.5
538.3 K, Mass density=279.19 kg/m3	277.66
538.3 K, Mass density=286.65 kg/m3	295.15
538.3 K, Mass density=301.19 kg/m3	255.72
538.48 K, Mass density=117 kg/m3	269.06
